For test [1], the system named is ALOMY. The test is described as follows: Pre-emergence action against ALOMY, 1280 g/ha. The class given is in vivo, Alopecurus myosuroides. The following applies: visual scoring after about 3 weeks vs untreated controls, 100% = plants have died, 0% = like control plants. The gist of the method:
(§1)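 Percent herbicidal effect, judged by eye relative to untreated pots around 3 weeks after soil-surface treatment. Application: formulated compound in water, 600 L/ha, 0.5% additive, on soil over sown seeds; greenhouse.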

Test [2] concerns DIGSA. The test is described as follows: Pre-emergence action against DIGSA, 1280 g/ha. The following applies: visual scoring after about 3 weeks vs untreated controls, 100% = plants have died, 0% = like control plants. The class given is in vivo, Digitaria sanguinalis. The gist of the method:
as §1

Test [3] deals with ECHCG. As to the kind of experiment: Pre-emergence action against ECHCG, 1280 g/ha. The class given is in vivo, Echinochloa crus-galli. The settings on record: visual scoring after about 3 weeks vs untreated controls, 100% = plants have died, 0% = like control plants. The essentials: as §1
The subject of test [4] is LOLRI. The test is described as follows: Pre-emergence action against LOLRI, 1280 g/ha. The class given is in vivo, Lolium rigidum. The settings on record: visual scoring after about 3 weeks vs untreated controls, 100% = plants have died, 0% = like control plants. The gist of the method: as §1
In test [5] the test system is POAAN. As to the kind of experiment: Pre-emergence action against POAAN, 1280 g/ha. The settings on record: visual scoring after about 3 weeks vs untreated controls, 100% = plants have died, 0% = like control plants. The class given is in vivo, Poa annua. The essentials:
as §1

In test [6] the test system is SETVI. The test is described as follows: Pre-emergence action against SETVI, 1280 g/ha. The format is in vivo, Setaria viridis. The following applies: visual scoring after about 3 weeks vs untreated controls, 100% = plants have died, 0% = like control plants. The gist of the method: as §1
Test [7] concerns ABUTH. The test is described as follows: Pre-emergence action against ABUTH, 1280 g/ha. The format is in vivo, Abutilon theophrasti. The settings on record: scored visually after about 3 weeks vs untreated controls (100% = plants have died). From the text: 1. Pre-Emergence Herbicidal Effect and Crop Plant Compatibility a) Seeds of mono- and dicotyledonous weed plants are placed in plastic pots in sandy loam soil (doubly sown with one species each of mono- or dicotyledonous weed plants per pot) and covered with soil. The compounds of the invention, formulated in the form of wettable powders (WP) or as emulsion concentrates (EC), are then applied onto the surface of the covering soil as aqueous suspension or emulsion with addition of 0.5% additive at a water application rate equivalent to 600 litres per hectare. After the treatment, the pots are placed in a greenhouse and kept under good growth conditions for the trial plants. After about 3 weeks, the effect of the preparations is scored visually in comparison with untreated controls as percentages. For example, 100% activity=the plants have died, 0% activity=like control plants. 1. Pre-Emergence Effectiveness Tables 1 to 12 below show the effects of selected compounds of the general formula (I) according to Tables 1 and 2 on various harmful plants and at an application rate corresponding to 1280 g/ha, which were obtained by the experimental procedure mentioned above.

In test [8] the test system is AMARE. As to the kind of experiment: Pre-emergence action against AMARE, 1280 g/ha. The following applies: scored visually after about 3 weeks vs untreated controls (100% = plants have died). The class given is in vivo, Amaranthus retroflexus. The gist of the method: as §1
Test [9] deals with MATIN. As to the kind of experiment: Pre-emergence action against MATIN, 1280 g/ha. The format is in vivo, Tripleurospermum inodorum (Matricaria inodora). The settings on record: scored visually after about 3 weeks vs untreated controls (100% = plants have died). The gist of the method: as §1
The subject of test [10] is STEME. The test is described as follows: Pre-emergence action against STEME, 1280 g/ha. The class given is in vivo, Stellaria media. The settings on record: scored visually after about 3 weeks vs untreated controls (100% = plants have died). The essentials: as §1
Test [11] relates to VERPE. As to the kind of experiment: Pre-emergence action against VERPE, 1280 g/ha. The format is in vivo, Veronica persica. The settings on record: scored visually after about 3 weeks vs untreated controls (100% = plants have died). The essentials: as §1
Test [12] deals with ALOMY. As to the kind of experiment: Post-emergence action against ALOMY, 1.28 kg/ha. The format is in vivo, Alopecurus myosuroides. The following applies: dosage 1280 g/ha, visual rating about 3 weeks after treatment vs untreated controls. The gist of the method:
(§2)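 Percent activity was scored visually ~3 wk post-spray relative to untreated plants. Treatment was post-emergence at the one-leaf stage using WP/EC in water with 0.5% additive (600 L/ha).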

For test [13], the system named is DIGSA. As to the kind of experiment: Post-emergence action against DIGSA, 1.28 kg/ha. The following applies: dosage 1280 g/ha, visual rating about 3 weeks after treatment vs untreated controls. The class given is in vivo, Digitaria sanguinalis. The essentials:
as §2

In test [14] the test system is ECHCG. The test is described as follows: Post-emergence action against ECHCG, 1.28 kg/ha. The format is in vivo, Echinochloa crus-galli. The following applies: dosage 1280 g/ha, visual rating about 3 weeks after treatment vs untreated controls. The gist of the method:
as §2

The subject of test [15] is POAAN. As to the kind of experiment: Post-emergence action against POAAN, 1.28 kg/ha. The class given is in vivo, Poa annua. The following applies: dosage 1280 g/ha, visual rating about 3 weeks after treatment vs untreated controls. The gist of the method:
as §2

For test [16], the system named is SETVI. As to the kind of experiment: Post-emergence action against SETVI, 1.28 kg/ha. The class given is in vivo, Setaria viridis. The following applies: dosage 1280 g/ha, visual rating about 3 weeks after treatment vs untreated controls. The essentials:
as §2

For test [17], the system named is KCHSC. The test is described as follows: Post-emergence action against KCHSC, 1.28 kg/ha. The format is in vivo, Bassia scoparia. The following applies: dosage 1280 g/ha, visual rating about 3 weeks after treatment vs untreated controls (100% = plants died). The gist of the method:
as §2

The test system of test [18] is MATIN. As to the kind of experiment: Post-emergence action against MATIN, 1.28 kg/ha. The format is in vivo, Tripleurospermum inodorum (Matricaria inodora). The following applies: dosage 1280 g/ha, visual rating about 3 weeks after treatment vs untreated controls (100% = plants died). The essentials:
as §2

Test [19] deals with STEME. The test is described as follows: Post-emergence action against STEME, 1.28 kg/ha. The format is in vivo, Stellaria media. The following applies: dosage 1280 g/ha, visual rating about 3 weeks after treatment vs untreated controls (100% = plants died). The essentials:
as §2

The test system of test [20] is VERPE. The test is described as follows: Post-emergence action against VERPE, 1.28 kg/ha. The class given is in vivo, Veronica persica. The settings on record: dosage 1280 g/ha, visual rating about 3 weeks after treatment vs untreated controls (100% = plants died). The gist of the method: as §2
For test [21], the system named is LOLRI. As to the kind of experiment: Post-emergence action against LOLRI, 1.28 kg/ha. The class given is in vivo, Lolium rigidum. The settings on record: dosage 1280 g/ha, visual rating about 3 weeks after treatment vs untreated controls. The gist of the method: as §2
The subject of test [22] is ABUTH. As to the kind of experiment: Post-emergence action against ABUTH, 1.28 kg/ha. The class given is in vivo, Abutilon theophrasti. The settings on record: dosage 1280 g/ha, visual rating about 3 weeks after treatment vs untreated controls (100% = plants died). The essentials: as §2
Test [23] deals with AMARE. As to the kind of experiment: Post-emergence action against AMARE, 1.28 kg/ha. The format is in vivo, Amaranthus retroflexus. The following applies: dosage 1280 g/ha, visual rating about 3 weeks after treatment vs untreated controls (100% = plants died). The gist of the method: as §2

As for `CC(Oc1nn(-c2ccccc2F)c(-c2ccc(F)nc2)c1C(F)(F)F)C(=O)O` (stereo not drawn) [VII-106], the “Pre-emergence action against ALOMY” value in test [1] stood at 100%. Besides, the “Pre-emergence action against DIGSA” value in [2] was determined as 100%. In addition, in [3], the “Pre-emergence action against ECHCG” value was found to be 100%. Also, in [4], the “Pre-emergence action against LOLRI” value turned out to be 100%. For the same molecule, the “Pre-emergence action against POAAN” value in test [5] is recorded as 100%. Moreover, the “Pre-emergence action against SETVI” value in [6] amounted to 100%. Further, in [7], the “Pre-emergence action against ABUTH” value is 90%. Moreover, the “Pre-emergence action against AMARE” value in test [8] is listed as 100%. Also, in test [9], the “Pre-emergence action against MATIN” value is 90%. Further, in [10], the “Pre-emergence action against STEME” value is reported as 100%. For the same molecule, the “Pre-emergence action against VERPE” value in [11] came out at 100%. Further, in test [12], the “Post-emergence action against ALOMY” value is listed as 100%. Moreover, in test [13], the “Post-emergence action against DIGSA” value was 100%. Moreover, the “Post-emergence action against ECHCG” value in test [14] turned out to be 90%. The “Post-emergence action against POAAN” value in test [15] turned out to be 100%. For the same molecule, the “Post-emergence action against SETVI” value in test [16] amounted to 90%. Further, the “Post-emergence action against KCHSC” value in test [17] came out at 100%. For the same molecule, the “Post-emergence action against MATIN” value in test [18] is on record as 90%. The “Post-emergence action against STEME” value in test [19] is 100%. In addition, in test [20], the “Post-emergence action against VERPE” value is recorded as 100%.
For `COC(=O)COc1nn(-c2c(F)cccc2F)c(-c2ccc(F)nc2)c1Br` [VII-109], the “Pre-emergence action against ALOMY” value in [1] is 100%. Besides, the “Pre-emergence action against DIGSA” value in [2] was determined as 100%. The “Pre-emergence action against ECHCG” value in test [3] was 100%. Also, the “Pre-emergence action against LOLRI” value in test [4] stood at 100%. Besides, the “Pre-emergence action against POAAN” value in test [5] worked out at 100%. Also, the “Pre-emergence action against SETVI” value in test [6] is 100%. The “Pre-emergence action against ABUTH” value in [7] is reported as 90%. For the same molecule, the “Pre-emergence action against AMARE” value in test [8] is recorded as 100%. Also, the “Pre-emergence action against MATIN” value in test [9] was found to be 100%. For the same molecule, in test [10], the “Pre-emergence action against STEME” value is 100%. Also, in [11], the “Pre-emergence action against VERPE” value stood at 100%. Further, in [12], the “Post-emergence action against ALOMY” value worked out at 100%. Also, the “Post-emergence action against DIGSA” value in [13] is given as 100%. Besides, the “Post-emergence action against ECHCG” value in [14] is given as 100%. For the same molecule, the “Post-emergence action against LOLRI” value in test [21] turned out to be 100%. The “Post-emergence action against POAAN” value in test [15] is recorded as 100%. The “Post-emergence action against SETVI” value in [16] is reported as 100%. Moreover, the “Post-emergence action against ABUTH” value in test [22] came out at 100%. In addition, the “Post-emergence action against AMARE” value in test [23] was 100%. Also, in [17], the “Post-emergence action against KCHSC” value is reported as 90%. The “Post-emergence action against MATIN” value in test [18] amounted to 100%. For the same molecule, the “Post-emergence action against STEME” value in test [19] stood at 100%. The “Post-emergence action against VERPE” value in test [20] is 100%.
In the case of `COC(=O)[C@@H](C)Oc1nn(-c2ccccc2F)c(-c2cnc(F)c(F)c2)c1Br` [VII-149], in test [1], the “Pre-emergence action against ALOMY” value was determined as 100%. For the same molecule, the “Pre-emergence action against DIGSA” value in test [2] amounted to 100%. In addition, the “Pre-emergence action against LOLRI” value in test [4] came to 100%. Also, in [5], the “Pre-emergence action against POAAN” value amounted to 100%. The “Pre-emergence action against SETVI” value in test [6] was 90%. Further, the “Pre-emergence action against ABUTH” value in test [7] is listed as 90%. In addition, in [8], the “Pre-emergence action against AMARE” value is 100%. The “Pre-emergence action against MATIN” value in test [9] worked out at 90%. Further, the “Pre-emergence action against STEME” value in test [10] is listed as 100%. Also, the “Pre-emergence action against VERPE” value in test [11] is given as 100%. Also, the “Post-emergence action against ALOMY” value in [12] was 100%. In addition, the “Post-emergence action against DIGSA” value in [13] is 100%. Besides, the “Post-emergence action against LOLRI” value in test [21] was 100%. Besides, the “Post-emergence action against POAAN” value in test [15] was 100%. Also, the “Post-emergence action against AMARE” value in [23] stood at 100%. For the same molecule, the “Post-emergence action against MATIN” value in test [18] was found to be 100%. Also, the “Post-emergence action against VERPE” value in test [20] is given as 90%.

The values are drawn from patent US12180187B2, “1-phenyl-5-azinylpyrazolyl-3-oxyalkyl acids and their use for controlling unwanted plant growth” (BAYER AKTIENGESELLSCHAFT, priority 2019, dated 2024).
